Test results taken from publication PMC9603373 (Microbiology Spectrum, 2022).
Marks after values point to notes of the source that are not given here.

What was measured:
[1] = test system: vancomycin-resistant Enterococcus faecium isolate NTUH688 (DNSE); format: cell-based; conditions: broth microdilution, cation-adjusted Mueller-Hinton broth + 50 μg/mL calcium
Description: (§1) Blood culture isolates were obtained from a clinical microbiology laboratory. Enterococcus spp. were identified using the Vitek 2 identification system (bioMérieux Inc., La Balme les Grottes, France). The MIC of vancomycin was determined using a Sensititre GPN3F (Trek Diagnostics, West Sussex, England). […] We used cation-adjusted Mueller-Hinton broth (Becton, Dickinson, Le Pont-de-Claix, France) supplemented with 50 μg/mL calcium. The MIC breakpoints were based on the CLSI criteria of interpretation ([15]).

[2] = test system: vancomycin-resistant Enterococcus faecium isolate NTUH664 (DSE); format: cell-based; conditions: broth microdilution, cation-adjusted Mueller-Hinton broth + 50 μg/mL calcium
Description: as §1

[3] = test system: daptomycin nonsusceptible Enterococcus faecium (NTUH688); assay: Rat infective endocarditis model, DNSE; format: in vivo; conditions: for blood_cfu / log_blood_cfu / log_veg_cfu / veg_cfu / veg_sterile: DNSE MIC 8, delay 48 h; for Bacterial load in blood / Rate of sterile vegetation / Bacterial load of vegetation: Wistar rat IE, DNSE MIC 8 mg/L, 48 h from inoculation to treatment; for Bacterial load in blood / Bacterial load of vegetation: mean (SD), SD; for Bacterial load in blood / Rate of sterile vegetation: n = 3; for Bacterial load of vegetation: sacrifice 24 h after last dose, n = 3, detection limit 2 log10 CFU/g; for veg_sterile: flag 1/0;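 as to all read-outs here: Catheter-induced aortic valve endocarditis in male Wistar rats, treated 3 days, bacteria counted by plating vegetation and blood homogenates on brain heart infusion agar, control rats given phosphate-buffered saline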
Description: (§2) Approval for animal use was obtained from the National Taiwan University Institutional Animal Care and Use Committee before the commencement of the experiments. Endocarditis was induced in male Wistar rats weighing ~330 g by using previously developed methodologies with slight modifications ([46]). To expose the right carotid artery for the placement of an intravascular catheter, the animals were anesthetized with 1 μL/g of Zoletil 50 (1 mg/mL) plus Rompun (23.32 mg/mL). A sterile polyethylene catheter (Intramedic PE-10; Clay Adams, Parsippany, NJ, USA) was inserted through a small incision and advanced 4 cm into the left ventricle. The catheter was ligated and left in place for the duration of the experiment. 24 h after the catheter was placed across the aortic valve, the bacterial inoculum, which was presuspended in saline, and 1 mL of 10^8 CFU/mL of VRE were administered intravenously via the tail vein. We evaluated the actual inoculum based on the CFU count. The rats received antibiotic treatment at 24 h or 48 h after the bacterial inoculation.
(§3) The animals were treated for 3 days. A group of infected but phosphate-buffered saline-treated rats was used as a control. 24 h after the last treatment, the animals were sacrificed via anesthetic overdose. The aortic valve vegetation and 1 mL of blood were obtained aseptically from the sacrificed animals, weighed, and homogenized in 1 mL of phosphate-buffered saline. Serial dilutions of homogenized tissues were performed, and 100 μL of each dilution, including the undiluted sample, were plated on brain heart infusion agar to enumerate the bacteria. The animals were included in the final analysis only if they survived the entire therapy and if their catheters were found across the aortic valve in the left ventricle. The detection limit of the bacterial load of vegetation was 2 log10 CFU/g.

in vivo = conditions: male, Wistar, rat, plasma, SD
Description: The experiments were performed in triplicate. […] Plasma was collected via centrifugation, and the samples were stored at −80°C until analysis.
All of the UHPLC-ESI-MS/MS analyses were performed using an Agilent 1290 UHPLC system coupled with an Agilent 6460 triple quadrupole mass spectrometer (Agilent Technologies, Santa Clara, CA, USA).

[4] = test system: daptomycin-susceptible, dose-dependent Enterococcus faecium (NTUH664); assay: Rat infective endocarditis model, DSE; conditions: for Bacterial load in blood / Rate of sterile vegetation / Bacterial load of vegetation: Wistar rat IE, DSE MIC 0.5 mg/L; for Bacterial load in blood / Bacterial load of vegetation: mean (SD); for Bacterial load in blood / Rate of sterile vegetation: n = 3; for Bacterial load of vegetation: sacrifice 24 h after last dose, n = 3, detection limit 2 log10 CFU/g; for veg_sterile: flag 1/0;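 as to all read-outs here: male Wistar rats with catheter-induced aortic valve endocarditis, dosed for 3 days, CFU counted in vegetation and blood, saline-treated infected controls, vegetation detection limit 2 log10 CFU/g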
Description: as §2, §3

[5] = 45 mg/kg sc, rat 1 of 3 (row order)
[6] = 45 mg/kg sc, rat 2 of 3 (row order)
[7] = 45 mg/kg sc, rat 3 of 3 (row order)
[8] = 90 mg/kg sc, rat 1 of 3 (row order)
[9] = 90 mg/kg sc, rat 2 of 3 (row order)
[10] = 90 mg/kg sc, rat 3 of 3 (row order)
[11] = DSE MIC 0.5, delay 24 h, 12 mg/kg iv, rat 1 of 3 (row order)
[12] = DSE MIC 0.5, delay 24 h, 12 mg/kg iv, rat 2 of 3 (row order)
[13] = DSE MIC 0.5, delay 24 h, 12 mg/kg iv, rat 3 of 3 (row order)
[14] = DSE MIC 0.5, delay 24 h, 45 mg/kg sc, rat 1 of 3 (row order)
[15] = DSE MIC 0.5, delay 24 h, 45 mg/kg sc, rat 2 of 3 (row order)
[16] = DSE MIC 0.5, delay 24 h, 45 mg/kg sc, rat 3 of 3 (row order)
[17] = DSE MIC 0.5, delay 24 h, 90 mg/kg sc, rat 1 of 3 (row order)
[18] = DSE MIC 0.5, delay 24 h, 90 mg/kg sc, rat 2 of 3 (row order)
[19] = DSE MIC 0.5, delay 24 h, 90 mg/kg sc, rat 3 of 3 (row order)
[20] = DSE MIC 0.5, delay 48 h, 12 mg/kg iv, rat 1 of 3 (row order)
[21] = DSE MIC 0.5, delay 48 h, 12 mg/kg iv, rat 2 of 3 (row order)
[22] = DSE MIC 0.5, delay 48 h, 12 mg/kg iv, rat 3 of 3 (row order)
[23] = DSE MIC 0.5, delay 48 h, 45 mg/kg sc, rat 1 of 3 (row order)
[24] = DSE MIC 0.5, delay 48 h, 45 mg/kg sc, rat 2 of 3 (row order)
[25] = DSE MIC 0.5, delay 48 h, 45 mg/kg sc, rat 3 of 3 (row order)
[26] = DSE MIC 0.5, delay 48 h, 90 mg/kg sc, rat 1 of 3 (row order)
[27] = DSE MIC 0.5, delay 48 h, 90 mg/kg sc, rat 2 of 3 (row order)
[28] = DSE MIC 0.5, delay 48 h, 90 mg/kg sc, rat 3 of 3 (row order)
[29] = 48 h from inoculation to treatment, 12 mg/kg/day i.v. 3 days, SD
[30] = 48 h from inoculation to treatment, 45 mg/kg/day s.c. 3 days, SD

SMILES: CCCCCCCCCC(=O)N[C@@H](Cc1c[nH]c2ccccc12)C(=O)N[C@H](CC(N)=O)C(=O)N[C@@H](CC(=O)O)C(=O)N[C@@H]1C(=O)NCC(=O)N[C@@H](CCCN)C(=O)N[C@@H](CC(=O)O)C(=O)N[C@H](C)C(=O)N[C@@H](CC(=O)O)C(=O)NCC(=O)N[C@H](CO)C(=O)N[C@@H]([C@H](C)CC(=O)O)C(=O)N[C@@H](CC(=O)c2ccccc2N)C(=O)O[C@@H]1C [daptomycin, Daptomycin]
- daptomycin MIC [1]: 8 µg/mL
- daptomycin MIC [2]: 0.5 µg/mL
- blood_cfu [3, 5]: 180
- log_blood_cfu [3, 5]: 2.26
- log_veg_cfu [3, 5]: 7
- veg_cfu [3, 5]: 5410000
- blood_cfu [3, 6]: 0
- log_blood_cfu [3, 6]: 0
- log_veg_cfu [3, 6]: 7
- veg_cfu [3, 6]: 7620000
- blood_cfu [3, 7]: 0
- log_blood_cfu [3, 7]: 0
- log_veg_cfu [3, 7]: 7
- veg_cfu [3, 7]: 13600000
- blood_cfu [3, 8]: 0
- log_blood_cfu [3, 8]: 0
- log_veg_cfu [3, 8]: 5
- veg_cfu [3, 8]: 80400
- blood_cfu [3, 9]: 0
- log_blood_cfu [3, 9]: 0
- log_veg_cfu [3, 9]: 5
- veg_cfu [3, 9]: 110000
- blood_cfu [3, 10]: 0
- log_blood_cfu [3, 10]: 0
- log_veg_cfu [3, 10]: 5.59
- veg_cfu [3, 10]: 390000
- Bacterial load in blood ([3]; 45 mg/kg/day s.c. 3 days): 0.75 (1.30) log10 CFU/mL
- Rate of sterile vegetation ([3]; 45 mg/kg/day s.c. 3 days): 0
- Bacterial load of vegetation ([3]; 45 mg/kg/day s.c. 3 days, 45 mg/kg/day): 6.92 (0.20)^f log10 CFU/g
- Bacterial load in blood ([3]; 90 mg/kg/day s.c. 3 days): 0 (0) log10 CFU/mL
- Rate of sterile vegetation ([3]; 90 mg/kg/day s.c. 3 days): 0
- Bacterial load of vegetation ([3]; 90 mg/kg/day s.c. 3 days, 90 mg/kg/day): 5.18 (0.36)^g^,^h log10 CFU/g
- veg_sterile [3, 5]: 0
- veg_sterile [3, 6]: 0
- veg_sterile [3, 7]: 0
- veg_sterile [3, 8]: 0
- veg_sterile [3, 9]: 0
- veg_sterile [3, 10]: 0
- Tmax (in vivo; iv, 12 mg/kg): 0.3 h
- cmax (in vivo; iv, 12 mg/kg): 106000 ng/mL
- half-life (in vivo; iv, 12 mg/kg): 4.6 h
- Tmax (in vivo; sc, 45 mg/kg): 3.3 h
- cmax (in vivo; sc, 45 mg/kg): 123000 ng/mL
- half-life (in vivo; sc, 45 mg/kg): 3 h
- Tmax (in vivo; sc, 90 mg/kg): 3.3 h
- cmax (in vivo; sc, 90 mg/kg): 178000 ng/mL
- half-life (in vivo; sc, 90 mg/kg): 2.9 h
- blood_cfu [4, 11]: 0
- log_blood_cfu [4, 11]: 0
- log_veg_cfu [4, 11]: 0
- veg_cfu [4, 11]: 0
- blood_cfu [4, 12]: 0
- log_blood_cfu [4, 12]: 0
- log_veg_cfu [4, 12]: 0
- veg_cfu [4, 12]: 0
- blood_cfu [4, 13]: 0
- log_blood_cfu [4, 13]: 0
- log_veg_cfu [4, 13]: 0
- veg_cfu [4, 13]: 0
- blood_cfu [4, 14]: 0
- log_blood_cfu [4, 14]: 0
- log_veg_cfu [4, 14]: 0
- veg_cfu [4, 14]: 0
- blood_cfu [4, 15]: 0
- log_blood_cfu [4, 15]: 0
- log_veg_cfu [4, 15]: 0
- veg_cfu [4, 15]: 0
- blood_cfu [4, 16]: 0
- log_blood_cfu [4, 16]: 0
- log_veg_cfu [4, 16]: 0
- veg_cfu [4, 16]: 0
- blood_cfu [4, 17]: 0
- log_blood_cfu [4, 17]: 0
- log_veg_cfu [4, 17]: 0
- veg_cfu [4, 17]: 0
- blood_cfu [4, 18]: 0
- log_blood_cfu [4, 18]: 0
- log_veg_cfu [4, 18]: 0
- veg_cfu [4, 18]: 0
- blood_cfu [4, 19]: 0
- log_blood_cfu [4, 19]: 0
- log_veg_cfu [4, 19]: 0
- veg_cfu [4, 19]: 0
- blood_cfu [4, 20]: 0
- log_blood_cfu [4, 20]: 0
- log_veg_cfu [4, 20]: 3.4
- veg_cfu [4, 20]: 2500
- blood_cfu [4, 21]: 0
- log_blood_cfu [4, 21]: 0
- log_veg_cfu [4, 21]: 3.26
- veg_cfu [4, 21]: 1800
- blood_cfu [4, 22]: 0
- log_blood_cfu [4, 22]: 0
- log_veg_cfu [4, 22]: 3.17
- veg_cfu [4, 22]: 1480
- blood_cfu [4, 23]: 0
- log_blood_cfu [4, 23]: 0
- log_veg_cfu [4, 23]: 4.66
- veg_cfu [4, 23]: 45600
- blood_cfu [4, 24]: 0
- log_blood_cfu [4, 24]: 0
- log_veg_cfu [4, 24]: 4.38
- veg_cfu [4, 24]: 23900
- blood_cfu [4, 25]: 0
- log_blood_cfu [4, 25]: 0
- log_veg_cfu [4, 25]: 0
- veg_cfu [4, 25]: 0
- blood_cfu [4, 26]: 0
- log_blood_cfu [4, 26]: 0
- log_veg_cfu [4, 26]: 0
- veg_cfu [4, 26]: 0
- blood_cfu [4, 27]: 0
- log_blood_cfu [4, 27]: 0
- log_veg_cfu [4, 27]: 0
- veg_cfu [4, 27]: 0
- blood_cfu [4, 28]: 0
- log_blood_cfu [4, 28]: 0
- log_veg_cfu [4, 28]: 0
- veg_cfu [4, 28]: 0
- Bacterial load in blood ([4]; 24 h from inoculation to treatment, 12 mg/kg/day i.v. 3 days, SD): 0 (0) log10 CFU/mL
- Rate of sterile vegetation ([4]; 24 h from inoculation to treatment, 12 mg/kg/day i.v. 3 days): 100
- Bacterial load in blood ([4]; 24 h from inoculation to treatment, 45 mg/kg/day s.c. 3 days, SD): 0 (0) log10 CFU/mL
- Rate of sterile vegetation ([4]; 24 h from inoculation to treatment, 45 mg/kg/day s.c. 3 days): 100
- Bacterial load in blood ([4]; 24 h from inoculation to treatment, 90 mg/kg/day s.c. 3 days, SD): 0 (0) log10 CFU/mL
- Rate of sterile vegetation ([4]; 24 h from inoculation to treatment, 90 mg/kg/day s.c. 3 days): 100
- Bacterial load in blood [4, 29]: 0 (0) log10 CFU/mL
- Rate of sterile vegetation ([4]; 48 h from inoculation to treatment, 12 mg/kg/day i.v. 3 days): 0
- Bacterial load of vegetation [4, 29]: 3.27 (0.11) log10 CFU/g
- Bacterial load in blood [4, 30]: 0 (0) log10 CFU/mL
- Rate of sterile vegetation ([4]; 48 h from inoculation to treatment, 45 mg/kg/day s.c. 3 days): 0
- Bacterial load of vegetation [4, 30]: 4.75 (0.42)^g log10 CFU/g
- Bacterial load in blood ([4]; 48 h from inoculation to treatment, 90 mg/kg/day s.c. 3 days, SD): 0 (0) log10 CFU/mL
- Rate of sterile vegetation ([4]; 48 h from inoculation to treatment, 90 mg/kg/day s.c. 3 days): 100
- Bacterial load of vegetation ([4]; 48 h from inoculation to treatment, 90 mg/kg/day s.c. 3 days, 90 mg/kg/day): 0 log10 CFU/g
- Bacterial load of vegetation ([4]; 48 h from inoculation to treatment, 90 mg/kg/day s.c. 3 days, 90 mg/kg/day, SD): 0 (0)^h^,^i log10 CFU/g
- veg_sterile [4, 12]: 1
- veg_sterile [4, 13]: 1
- veg_sterile [4, 14]: 1
- veg_sterile [4, 15]: 1
- veg_sterile [4, 16]: 1
- veg_sterile [4, 17]: 1
- veg_sterile [4, 18]: 1
- veg_sterile [4, 19]: 1
- veg_sterile [4, 20]: 0
- veg_sterile [4, 21]: 0
- veg_sterile [4, 22]: 0
- veg_sterile [4, 23]: 0
- veg_sterile [4, 24]: 0
- veg_sterile [4, 25]: 1
- veg_sterile [4, 26]: 1
- veg_sterile [4, 27]: 1
- veg_sterile [4, 28]: 1
